What all share (type): cell-based
Test [1] deals with Pasteurella multocida PM 6267 (P 2225 (L386), reference strain, mouse infection strain). The experiment in a line: MIC, broth-microdilution (CLSI VET01-A4), strain PM 6267. The note with it: Pasteurella multocida strain PM 6267, broth-microdilution; unit assumed. In a few lines:
(§1)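 Read-out is unaided visual inspection for turbidity. The minimum inhibitory concentration is the lowest tested level without detectable growth across a two-fold compound series.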
(Dilution methods test growth across graded concentrations, often in twofold steps.)

Test [2] concerns Mannheimia haemolytica MH 6374 (ATCC 33396, reference strain). Put plainly: MIC, broth-microdilution (CLSI VET01-A4), strain MH 6374. The note with it: Mannheimia haemolytica strain MH 6374, broth-microdilution; unit assumed. In outline: as §1
The test system of test [3] is Mannheimia haemolytica MH 13093 (XB0472-6014.1, BRD field isolate). Put plainly: MIC, broth-microdilution (CLSI VET01-A4), strain MH 13093. The note with it: Mannheimia haemolytica strain MH 13093, broth-microdilution; unit assumed. In outline:
as §1

Test [4] has as its system Mannheimia haemolytica MH 6357 (M7/2, reference strain, cattle infection strain). The experiment in a line: MIC, broth-microdilution (CLSI VET01-A4), strain MH 6357. To be noted: Mannheimia haemolytica strain MH 6357, broth-microdilution; unit assumed. In outline: as §1
Test [5] relates to Pasteurella multocida PM 10775 (080130003051, BRD field isolate). The experiment in a line: MIC, broth-microdilution (CLSI VET01-A4), strain PM 10775. To be noted: Pasteurella multocida strain PM 10775, broth-microdilution; unit assumed. In outline: as §1
Test [6] concerns Mannheimia haemolytica MH 12587 (1071, BRD field isolate, macrolide-resistance: erm+, E+). Put plainly: MIC, broth-microdilution (CLSI VET01-A4), strain MH 12587. The note with it: Mannheimia haemolytica strain MH 12587, broth-microdilution; unit assumed. In outline: as §1
The test system of test [7] is Mannheimia haemolytica MH 10720 (154, BRD field isolate). Put plainly: MIC, broth-microdilution (CLSI VET01-A4), strain MH 10720. To be noted: Mannheimia haemolytica strain MH 10720, broth-microdilution; unit assumed. In outline: as §1
The test system of test [8] is Pasteurella multocida PM 12080 (IV102277-0093, BRD field isolate). The experiment in a line: MIC, broth-microdilution (CLSI VET01-A4), strain PM 12080. To be noted: Pasteurella multocida strain PM 12080, broth-microdilution; unit assumed. In outline: as §1
The test system of test [9] is Mannheimia haemolytica MH 13065 (XB0446-6003.9, BRD field isolate). Put plainly: MIC, broth-microdilution (CLSI VET01-A4), strain MH 13065. The note with it: Mannheimia haemolytica strain MH 13065, broth-microdilution; unit assumed. In outline:
as §1

Experimental findings from patent US11034650B2, “Compounds useful for treating a Mannheimia haemolytica or Histophilus somni infection” (Intervet Inc., priority 2016, dated 2021) are described below.

In brackets after ≈: the same amount, converted by molar mass.

In [1], `CC[C@H](C)[C@H](NC(=O)c1ccc(C#Cc2ccc(CN(CC)CC)cc2)cc1)C(=O)NO` [Compound 118] registered an MIC PM 6267 of 0.4 µg/mL (≈ 0.918 µM). In addition, the MIC MH 6374 in [2] stood at 12.5 µg/mL (≈ 28.7 µM). This compound came in with an MIC MH 13093 in test [3] of 12.5 µg/mL (≈ 28.7 µM). The compound further registered an MIC MH 6357 in [4] of 6.3 µg/mL (≈ 14.5 µM). Further, the MIC PM 10775 in test [5] was 0.2 µg/mL (≈ 0.459 µM). In test [6], this compound yielded an MIC MH 12587 of 25 µg/mL (≈ 57.4 µM). The MIC MH 10720 in test [7] was 3.1 µg/mL (≈ 7.12 µM). In addition, in [8], the MIC PM 12080 was determined as 1.6 µg/mL (≈ 3.67 µM). In test [9], this compound showed an MIC MH 13065 of 12.5 µg/mL (≈ 28.7 µM).

Compound `CC[C@H](C)[C@H](NC(=O)c1ccc(C#Cc2ccc(CN3CCOCC3)cc2)cc1)C(=O)NO` [Compound 119] yielded an MIC PM 6267 in test [1] of no more than 0.1 µg/mL. The compound further showed an MIC MH 6374 in [2] of 1.6 µg/mL (≈ 3.56 µM). This compound also came in with an MIC MH 13093 in test [3] of 3.1 µg/mL (≈ 6.9 µM). In [4], this compound displayed an MIC MH 6357 of 1.6 µg/mL (≈ 3.56 µM). The compound further displayed an MIC PM 10775 in [5] of no more than 0.1 µg/mL. The same compound registered an MIC MH 12587 in test [6] of 3.1 µg/mL (≈ 6.9 µM). This compound yielded an MIC MH 10720 in test [7] of 0.4 µg/mL (≈ 0.89 µM). In [8], this compound displayed an MIC PM 12080 of no more than 0.1 µg/mL. This compound gave an MIC MH 13065 in test [9] of 1.6 µg/mL (≈ 3.56 µM).

`CC[C@H](C)[C@H](NC(=O)c1ccc(C#Cc2ccc(CN3CCc4ccccc4C3)cc2)cc1)C(=O)NO` [Compound 124]: the MIC PM 6267 in test [1] worked out at 3.1 µg/mL (≈ 6.25 µM). The MIC MH 6374 in test [2] was found to be 12.5 µg/mL (≈ 25.2 µM). In test [3], the MIC MH 13093 is 12.5 µg/mL (≈ 25.2 µM). Further, the MIC MH 6357 in test [4] stood at 6.3 µg/mL (≈ 12.7 µM). Further, the MIC PM 10775 in test [5] was found to be 0.8 µg/mL (≈ 1.61 µM). Besides, the MIC MH 12587 in test [6] came to 25 µg/mL (≈ 50.4 µM). In test [7], this compound showed an MIC MH 10720 of 3.1 µg/mL (≈ 6.25 µM). The same compound returned an MIC PM 12080 in [8] of 3.1 µg/mL (≈ 6.25 µM). For the same compound, the MIC MH 13065 in [9] turned out to be 12.5 µg/mL (≈ 25.2 µM).

`CC[C@H](C)[C@H](NC(=O)c1ccc(C#Cc2ccc(CNCc3ccccc3)cc2)cc1)C(=O)NO` [Compound 126] showed an MIC PM 6267 in test [1] of 0.4 µg/mL (≈ 0.852 µM). The same compound displayed an MIC MH 6374 in test [2] of 1.6 µg/mL (≈ 3.41 µM). Besides, the MIC MH 13093 in [3] was found to be 1.6 µg/mL (≈ 3.41 µM). For the same compound, in test [4], the MIC MH 6357 stood at 3.1 µg/mL (≈ 6.6 µM). The same compound had an MIC PM 10775 in test [5] of no more than 0.1 µg/mL. The MIC MH 12587 in test [6] is 1.6 µg/mL (≈ 3.41 µM). The MIC MH 10720 in test [7] was 0.4 µg/mL (≈ 0.852 µM). This compound also gave an MIC PM 12080 in [8] of 0.8 µg/mL (≈ 1.7 µM). This compound returned an MIC MH 13065 in test [9] of 1.6 µg/mL (≈ 3.41 µM).

`CC[C@H](C)[C@H](NC(=O)c1ccc(C#Cc2ccc(CN(C)Cc3ccccc3)cc2)cc1)C(=O)NO` [Compound 127] returned an MIC PM 6267 in test [1] of 1.6 µg/mL (≈ 3.31 µM). This compound also had an MIC MH 6374 in test [2] of 6.3 µg/mL (≈ 13 µM). This compound also displayed an MIC MH 13093 in test [3] of 12.5 µg/mL (≈ 25.8 µM). The compound also displayed an MIC MH 6357 in [4] of 3.1 µg/mL (≈ 6.41 µM). Besides, the MIC PM 10775 in [5] was found to be 0.4 µg/mL (≈ 0.827 µM). The compound also had an MIC MH 12587 in test [6] of 25 µg/mL (≈ 51.7 µM). The compound also came in with an MIC MH 10720 in test [7] of 1.6 µg/mL (≈ 3.31 µM). In test [8], this compound came in with an MIC PM 12080 of 1.6 µg/mL (≈ 3.31 µM). The MIC MH 13065 in [9] turned out to be 6.3 µg/mL (≈ 13 µM).

For the compound `CC[C@H](C)[C@H](NC(=O)c1ccc(C#Cc2ccc(CNCc3ccc(Cl)cc3)cc2)cc1)C(=O)NO` [Compound 128], the MIC PM 6267 in test [1] came to 3.1 µg/mL (≈ 6.15 µM). The MIC MH 6374 in test [2] was determined as 3.1 µg/mL (≈ 6.15 µM). The MIC MH 13093 in [3] was 6.3 µg/mL (≈ 12.5 µM). Besides, in test [4], the MIC MH 6357 was 3.1 µg/mL (≈ 6.15 µM). The compound further gave an MIC PM 10775 in test [5] of 0.4 µg/mL (≈ 0.794 µM). Besides, the MIC MH 12587 in [6] stood at 12.5 µg/mL (≈ 24.8 µM). For the same compound, the MIC MH 10720 in [7] was found to be 0.8 µg/mL (≈ 1.59 µM). The same compound yielded an MIC PM 12080 in test [8] of 3.1 µg/mL (≈ 6.15 µM). In addition, in [9], the MIC MH 13065 came out at 3.1 µg/mL (≈ 6.15 µM).

`CC[C@H](C)[C@H](NC(=O)c1ccc(C#Cc2ccc(CNCc3ccc(OC)cc3)cc2)cc1)C(=O)NO` [Compound 129] had an MIC PM 6267 in test [1] of 0.8 µg/mL (≈ 1.6 µM). For the same compound, in [2], the MIC MH 6374 was determined as 1.6 µg/mL (≈ 3.2 µM). Also, the MIC MH 13093 in test [3] was 3.1 µg/mL (≈ 6.2 µM). Moreover, the MIC MH 6357 in test [4] came out at 1.6 µg/mL (≈ 3.2 µM). In test [5], this compound returned an MIC PM 10775 of no more than 0.1 µg/mL. Besides, the MIC MH 12587 in test [6] amounted to 3.1 µg/mL (≈ 6.2 µM). This compound also had an MIC MH 10720 in test [7] of 0.4 µg/mL (≈ 0.801 µM). The MIC PM 12080 in test [8] is 1.6 µg/mL (≈ 3.2 µM). Besides, the MIC MH 13065 in [9] stood at 1.6 µg/mL (≈ 3.2 µM).

In the case of `CC[C@H](C)[C@H](NC(=O)c1ccc(C#Cc2ccc(CNCc3ccc(N(C)C)cc3)cc2)cc1)C(=O)NO` [Compound 130], the MIC PM 6267 in test [1] is 3.1 µg/mL (≈ 6.05 µM). In [2], this compound displayed an MIC MH 6374 of 3.1 µg/mL (≈ 6.05 µM). In addition, the MIC MH 13093 in [3] stood at 6.3 µg/mL (≈ 12.3 µM). Further, the MIC MH 6357 in test [4] was 3.1 µg/mL (≈ 6.05 µM). Moreover, the MIC PM 10775 in [5] came to 0.4 µg/mL (≈ 0.78 µM). The compound also gave an MIC MH 12587 in test [6] of 12.5 µg/mL (≈ 24.4 µM). Further, in test [7], the MIC MH 10720 was determined as 1.6 µg/mL (≈ 3.12 µM). This compound also displayed an MIC PM 12080 in [8] of 3.1 µg/mL (≈ 6.05 µM). The compound further displayed an MIC MH 13065 in [9] of 6.3 µg/mL (≈ 12.3 µM).
